Source: patent US20250127889A1, “IMMUNOSTIMULATORY COMPOSITION” (Reiko SHINKURA, priority 2021, published 2025)

Experiments:
[1] = tested on: CD11b expression in splenic B cells; experiment: CD11b expression in stimulated splenic B cells in the presence of TLR and NOD2 inhibitors; type: cell-based, Balb/c mice
[2] = tested on: CD11b expression in splenic naive B cells; experiment: Stimulation of splenic naive B cells in vitro, CD11b expression by flow cytometry; type: cell-based, Balb/c mice
Experimental: (§1) Splenic B cells were negatively sorted from the spleens of 8-week-old Balb/c mice using a B cell isolation kit (Miltenyi Biotec B.V. & Co. KG). The splenic B cells (concentration: 5×10^5/ml) were cultured in RPMI1640 medium, and 13 types of independent stimuli were each applied thereto. Anti-mouse IgM (15 μg/ml; Jackson ImmunoResearch Laboratories Inc.) • 2. Anti-mouse-CD40 (HM40-3, 500 ng/ml; manufactured by BioLegend, Inc.) • 3. BAFF (50 ng/ml; BioLegend, Inc.) • 4. Pam3CSK4 (1 μg/ml, InvivoGen) • 5. Poly I:C (25 ng/ml, InvivoGen) • 6. LPS (50 ng/ml, Sigma-Aldrich, Inc.) • 7. Flagellin (20 ng/ml, Sigma-Aldrich, Inc.) • 8. Imiquimod (R837, 5 ng/ml; InvivoGen) • 9. CpG (20 μg/ml, GeneDsign Inc.) • 10. […] Heat-killed S. enterica (10^8 CFU/ml) • 12. Heat-killed B. bifidum (10^7 CFU/ml) • 13. Heat-killed B. breve (10^7 CFU/ml)
For MDP stimulation, purified splenic B cells (5×10^5/ml) were cultured in RPMI1640 medium supplemented with N-acetylmuramyl-L-alanyl-D-isoglutamine hydrate (1 μg/ml; Sigma-Aldrich Inc.).

[3] = tested on: itgam (CD11b); experiment: qPCR analysis of itgam in B cells after stimulation; type: cell-based, Balb/c mice
Experimental: About 1×10^4 PP GC B cells (PNA^hiB220^+ cells) and about 1×10^4 non-GC PP B cells (PNA^loB220^+) were each sorted. RNAs were extracted from the isolated cells using NucleoSpin RNA XS (Takara Bio Inc.), and cDNAs were synthesized using GoScript (registered trademark) Reverse Transcriptase (Promega Corporation). Using KAPA SYBR (registered trademark) FAST qPCR Master Mix (2×) Kit (Kapa Biosystems, Inc.), real-time PCR was performed in triplicate on an optical 384-well PCR plate (F. Hoffmann-La Roche Ltd) using LightCycler 480 (F. Hoffmann-La Roche Ltd). Gene expression levels were normalized to the expression level of the housekeeping gene β-actin. The following primers were used for the analysis.
Splenic B cells were negatively sorted from the spleens of 8-week-old Balb/c mice using a B cell isolation kit (Miltenyi Biotec B.V. & Co. KG). The splenic B cells (concentration: 5×10^5/ml) were cultured in RPMI1640 medium, and 13 types of independent stimuli were each applied thereto. Anti-mouse IgM (15 μg/ml; Jackson ImmunoResearch Laboratories Inc.) • 2. Anti-mouse-CD40 (HM40-3, 500 ng/ml; manufactured by BioLegend, Inc.) • 3. BAFF (50 ng/ml; BioLegend, Inc.) • 4. Pam3CSK4 (1 μg/ml, InvivoGen) • 5. Poly I:C (25 ng/ml, InvivoGen) • 6. LPS (50 ng/ml, Sigma-Aldrich, Inc.) • 7. Flagellin (20 ng/ml, Sigma-Aldrich, Inc.) • 8. Imiquimod (R837, 5 ng/ml; InvivoGen) • 9. […]

[4] = tested on: PP GC; experiment: In vivo imaging of transplanted iGB cells induced by pre-stimulation (entry into PP GC); design: species or system Balb/c mice; conditions: splenic naive B cells pre-stimulated 3 days, cultured on 40LB cells 4 days, injected i.v.
Experimental: Then, 1×10^5 B220^+ B cells were isolated from the stimulated cells, and subsequently, the cells were seeded onto 40LB feeder cells supplemented with rIL-4 (1 ng/ml; BioLegend, Inc.) to induce iGB cells. As a control group, splenic naive B cells not subjected to stimulation were seeded onto the 40LB feeder cells supplemented with rIL-4 (1 ng/ml; BioLegend, Inc.). After culturing for 4 days, naive B-40LB cells, pam3CSK4-40LB cells, E. coli-40LB, IgM-40LB, and CpG-40LB cells of 3×10^5 iGB cells (B220^+) were isolated, labeled with CellTracker Orange CMTMR fluorescent dye (Invitrogen Corporation), and then separately injected intravenously into mice (Balb/c, 8 to 12 weeks old) together with 10 μg of AF488 anti-mouse MAdCAM-1 (BioLegend, Inc. mAb MECA-367) to identify HEV. Under anesthesia, 1 μg of AF647 anti-mouse IgA (Southern Biotech) was directly injected into the PPs of the same mice into which iGB cells were transferred, to stain the IgA^+ cells for GC identification. Localization of intravenously injected labeled iGB cells was observed using a microscope LSM880 (Carl Zeiss AG) and ZEN 2009 (Carl Zeiss AG) analysis software.

[5] = tested on: splenic naive B cells; experiment: B cell proliferation / number after in vitro stimulation; type: cell-based, Balb/c mice; conditions: compared to B cells stimulated with anti-IgM, anti-CD40, BAFF, poly I:C, flagellin, imiquimod
Experimental: as §1

[6] = tested on: PNAhighB220+ PP GC B cells; experiment: Oral administration of heat-killed bacteria or pam3CSK4 to WT mice, PP GC B cells after 2 days; conditions: within 2 days
Experimental: Mice orally administered with 100 μl of PBS were prepared as controls. 2 days later, the PPs of these mice were excised, and B cells in the GCs were analyzed using Spectral Cell Analyzer SA3800 (Sony Biotechnology Inc.), as described above.

[7] = tested on: OVA-specific IgA; experiment: Oral immunization with OVA plus adjuvant, ELISA of OVA-specific IgA in stools; type: in vivo, mice; conditions: OVA 1 mg with or without adjuvant on Day 0 and Day 16, stools Day 21
Experimental: Stools were collected on Day 21, and OVA-specific antibody measurement was performed by enzyme-linked immunosorbent assay (ELISA).
The stools were suspended in 10-times weight/volume (w/v) PBS. After performing centrifugation (8,000 g, 15 minutes), the supernatant was collected as a fecal extract. A plate was precoated with 1 mg/ml OVA overnight, followed by blocking with PBS containing 1% (w/v) bovine serum albumin at room temperature for 1 hour. Then, a serially diluted fecal extract was added to the plate, and the plate was incubated at room temperature for 1 hour. Relative avidity of IgA was detected using alkaline phosphatase-labeled goat anti-mouse IgA (manufactured by Southern Biotech). After incubation overnight at 4° C., optical density (OD) values at 405 nm were measured using TriStar Multimode Reader LB 942 (manufactured by Berthold Technologies GmbH & Co. KG).

[8] = tested on: TNF-α; experiment: Oral adjuvant with OVA as antigen, serum TNF-α ELISA; type: in vivo, C57BL/6 mice; conditions: oral immunization with OVA 1 mg 3 times every 2 weeks, blood on second day after third immunization
Experimental: Serum TNF-α levels were measured in accordance with the protocol of mouse TNF-α ELISA kit (Invitrogen Corporation, BMS607-3).

Q: For `CCOC(=O)C1=CCCC[C@H]1S(=O)(=O)Nc1ccc(F)cc1Cl` [TLR4 inhibitor], which “proportion of CD11b+ B cells stimulated with pam3CSK4 and heat-killed E. coli when inhibitor was used” value ([1]; inhibitor 1 μM, pam3CSK4 1 μg/ml, heat-killed E. coli 10^7 CFU/ml) is on record?
A: Its value is “did not increase”.

Q: With `CN(CCc1nc2ccccc2n1CC(=O)Nc1ccc2c(c1)CCC2)C(=O)c1ccccc1` [NOD2 inhibitor] as the molecule, how does the “CD11b expression in B cells stimulated with pam3CSK4 and heat-killed E. coli with inhibitor” value ([1]; NOD2 inhibitor 30 μM) read?
A: Its value is “strongly suppressed”.

Q: For pam3CSK4, which “proportion of CD11b+ B cells in stimulated B cells” value ([2]; splenic naive B cells, 3 days stimulation) is on record?
A: Its value is 27.6%.

Q: And the “expression of itgam (CD11b) in B cells” value [3]?
A: The value was “increased”.

Q: What about the “entry into GC of iGB cells stimulated in advance, after intravenous injection into mice” value [4] of the same molecule?
A: Its value is “most of the cells entered GC”.

Q: And the “number of B cells after 3 days of culturing” value [5]?
A: Its value is “significantly increased”.

Q: What about the “number of PP GC B cells” value [6] of the same molecule?
A: Its value is “increased”.

Q: And the “proportion of PP GC B cells” value [6]?
A: Its value is “increased”.

Q: What about the “OVA-specific IgA in the stools” value [7] of the same molecule?
A: The value was “increased”.

Q: “N-acetylmuramyl-L-alanyl-D-isoglutamine hydrate [MDP]” was tested. Which “induction of CD11b expression by NOD2 ligand” value ([2]; purified splenic B cells, MDP 1 μg/ml) did it give?
A: Its value is “did not induce”.

Q: Which “OVA-specific IgA in the stools” value [7] does the source give for “OVA: ovalbumin, orally administered model antigen” here?
A: The value was “did not increase”.

Q: Which “serum TNFα concentration” value [8] does the source give for CpG-ODN1826 here?
A: Its value is “cause increase”.

B1: BAFF: B-cell activating factor, mimics interaction with DCs (protein, UniProt Q9WU72 127-309, looked up)
Tumor necrosis factor ligand …: AFQGPEETEQDVDLSAPPAPCLPGCRHSQHDDNGMNLRNIIQDCLQLIADSDTPTIRKGTYTFVPWLLSFKRGNALEEKENKIVVRQTGYFFIYSQVLYTDPIFAMGHVIQRKKVHVFGDELSLVTLFRCIQNMPKTLPNNSCYSAGIARLEEGDEIQLAIPRENAQISRNGDDTFFGALKLL
Q: How did the “induction of CD11b expression in naive splenic B cells” value ([2]; in vitro stimulation, 3 days culture, flow cytometry) turn out when B1 was run?
A: The value was “did not induce”.
